Assay results reported in ChEMBL document CHEMBL1142283, “Thiosulfinates from Allium tuberosum L. induce apoptosis via caspase-dependent and -independent pathways in PC-3 human prostate cancer cells” (Bioorg Med Chem Lett, 2008).
Active and inactive are the calls of the source. The calls are words filed in the database; no cut-off is given here.

Columns and labels:
PC-3 [1] = assay: Induction of apoptosis in human PC3 cells assessed as DNA fragmentation at 5 ug/mL after 24 hrs by ELISA relative to control; type: functional
[2] = Cytotoxicity against human RC58T/h/SA#4 cells after 24 hrs by SRB assay; type: functional, cell-based
LNCaP = assay: Cytotoxicity against human LNCap cells after 24 hrs by SRB assay; type: functional, cell-based
PC-3 [3] = assay: Cytotoxicity against human PC3 cells after 24 hrs by SRB assay; type: functional, cell-based; details: PC-3, 24 h
DU-145 = assay: Cytotoxicity against human DU145 cells after 24 hrs by SRB assay; type: functional, cell-based; details: DU-145, 24 h
PC-3 [4] = assay: Growth inhibition of human PC3 cells by SRB assay; type: functional, cell-based; details: TDE = time-dependent effect
PC-3 [5] = assay: Growth inhibition of human PC3 cells assessed as decrease in cell numbers by trypan blue assay; type: functional, cell-based
PC-3 [6] = assay: Induction of cell death in human PC3 cells by trypan blue assay; type: functional, cell-based
PC-3 [7] = assay: Induction of apoptosis in human PC3 cells after 24 hrs by Hoechst staining; type: functional, cell-based
PC-3 [8] = assay: Induction of apoptosis in human PC3 cells assessed as DNA fragmentation at 10 ug/mL after 24 hrs by ELISA relative to control; type: functional
PC-3 [9] = assay: Induction of apoptosis in human PC3 cells assessed as DNA fragmentation at 20 ug/mL after 24 hrs by ELISA relative to control; type: functional
PC-3 [10] = assay: Cell cycle arrest in human PC3 cells assessed as accumulation at subG1 phase after 24 hrs by flow cytometry; type: functional, cell-based
PC-3 [11] = assay: Induction of PARP cleavage in human PC3 cells after 24 hrs by Western blot; type: functional, cell-based
PC-3 [12] = assay: Induction of apoptosis in human PC3 cells assessed as caspase 8 activity at 10 ug/mL relative to control; type: functional
PC-3 [13] = assay: Induction of apoptosis in human PC3 cells assessed as caspase 9 activity at 10 ug/mL relative to control; type: functional
PC-3 [14] = assay: Induction of apoptosis in human PC3 cells assessed as caspase 3 activity at 10 ug/mL relative to control; type: functional
PC-3 [15] = assay: Reversal of induction of apoptosis in human PC3 cells in presence of caspase inhibitor Z-VAD-fmk; type: functional, cell-based
PC-3 [16] = assay: Induction of cell death in human PC3 cells in presence of caspase inhibitor Z-VAD-fmk; type: functional, cell-based
PC-3 [17] = assay: Increase in Bax protein expression in human PC3 cells by Western blot; type: functional, cell-based
PC-3 [18] = assay: Decrease in Bcl2 protein expression in human PC3 cells by Western blot; type: functional, cell-based
PC-3 [19] = assay: Induction of Bid protein cleavage in human PC3 cells by Western blot; type: functional, cell-based
PC-3 [20] = assay: Induction of AIF protein translocation into nucleus in human PC3 cells after 24 hrs by immunostaining; type: functional, cell-based
PC-3 [21] = assay: Induction of apoptosis in human PC3 cells assessed as caspase 3 activity at 5 ug/mL; type: functional, cell-based
PC-3 [22] = assay: Induction of apoptosis in human PC3 cells assessed as caspase 3 activity at 10 ug/mL; type: functional, cell-based
PC-3 [23] = assay: Induction of apoptosis in human PC3 cells assessed as caspase 3 activity at 20 ug/mL; type: functional, cell-based
PC-3 [24] = assay: Increase in AIF protein levels in human PC3 cells after 24 hrs by Western blot; type: functional, cell-based

| Compound | Fold change (PC-3 [1]) | IC50 [2] | IC50 (LNCaP) | IC50 (PC-3 [3]) | IC50 (DU-145) | Activity (PC-3 [4]) | Activity (PC-3 [5]) | Activity (PC-3 [6]) | Activity (PC-3 [7]) | Fold change (PC-3 [8]) | Fold change (PC-3 [9]) | Activity (PC-3 [10]) | Activity (PC-3 [11]) | Fold change (PC-3 [12]) | Fold change (PC-3 [13]) | Fold change (PC-3 [14]) | Activity (PC-3 [15]) | Activity (PC-3 [16]) | Activity (PC-3 [17]) | Activity (PC-3 [18]) | further results |
| --- | --- | --- | --- | --- | --- | --- | --- | --- | --- | --- | --- | --- | --- | --- | --- | --- | --- | --- | --- | --- | --- |
| CS[S+](C)[O-] (configuration not stated) | 1.3 | 96.1 µM | 102 µM | 166 µM | 184 µM | tde | Dose-dependent effect | Dose-dependent effect | Active | 1.7 | 1.8 | Dose-dependent effect | Active | 1.9 | 2.1 | 1.7 | Active | Active | Dose-dependent effect | Dose-dependent effect | Activity (PC-3 [19]): Active; Activity (PC-3 [20]): Active; Activity (PC-3 [21]): Active; Activity (PC-3 [22]): Active; Activity (PC-3 [23]): Active; Activity (PC-3 [24]): Active |
| C=CC[S+]([O-])SC (configuration not stated) | 1.3 | 25.3 µM | 29.7 µM | 62.9 µM | 85.8 µM | tde | Dose-dependent effect | Dose-dependent effect | Active | 1.7 | 1.8 | Dose-dependent effect | Active | 1.9 | 2.1 | 1.7 | Active | Active | Dose-dependent effect | Dose-dependent effect | Activity (PC-3 [19]): Active; Activity (PC-3 [20]): Active; Activity (PC-3 [21]): Active; Activity (PC-3 [22]): Active; Activity (PC-3 [23]): Active; Activity (PC-3 [24]): Active |
